Experimental data from patent publication US20070049593A1 (priority 2004, published 2007).
Where a name gives a salt, the structure may show the parent alone.

molecular target: T1, HCV polymerase (Hepatitis C virus genotype 1b, UniProt P26663); assay: biochemical; set-up: species or system HCV BK strain
T1 construct: a region encoding NS5B (J Virol 1991 March, 65(3), 1105-13, 544 amino acids after deletion of 47 amino acids on the C-terminal); 6xHis (C); made in house; host or cells: Escherichia coli
T1 sequence (P26663 2420-2963): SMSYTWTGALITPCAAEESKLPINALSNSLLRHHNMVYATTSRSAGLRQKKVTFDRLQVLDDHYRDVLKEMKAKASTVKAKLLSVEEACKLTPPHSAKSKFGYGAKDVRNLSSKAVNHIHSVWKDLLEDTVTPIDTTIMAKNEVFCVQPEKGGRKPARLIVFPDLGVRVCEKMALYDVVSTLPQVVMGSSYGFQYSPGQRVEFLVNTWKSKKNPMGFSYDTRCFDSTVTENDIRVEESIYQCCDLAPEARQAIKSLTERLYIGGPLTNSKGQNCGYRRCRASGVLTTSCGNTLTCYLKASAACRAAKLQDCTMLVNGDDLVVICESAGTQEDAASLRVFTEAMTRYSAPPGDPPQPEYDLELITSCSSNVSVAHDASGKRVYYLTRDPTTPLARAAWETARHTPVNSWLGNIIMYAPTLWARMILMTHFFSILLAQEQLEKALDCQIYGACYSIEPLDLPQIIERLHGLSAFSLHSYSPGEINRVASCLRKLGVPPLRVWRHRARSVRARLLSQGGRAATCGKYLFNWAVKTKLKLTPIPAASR
Source text: The evaluation of the HCV polymerase inhibitory activity of the compound of the present invention is explained in the following. This polymerase is an enzyme coded for by the non-structural protein region called NS5B on the genome RNA of HCV (EMBO J., 15:12-22, 1996).
Using, as a template, a cDNA clone corresponding to the full length genome RNA of HCV BK strain obtained from the blood of a patient with hepatitis C, a region encoding NS5B (J Virol 1991 March, 65(3), 1105-13, 544 amino acids after deletion of 47 amino acids on the C-terminal) was amplified by PCR. The objective gene was prepared by adding a 6 His tag {base pair encoding 6 continuous histidine (His)}to the 3′ end thereof and transformed to Escherichia coli. The Escherichia coli capable of producing the objective protein was cultured. The obtained cells were suspended in a buffer solution and crushed in a microfluidizer.
Using a synthetic primer designed based on the sequence of HCV genomic 3′ untranslated region, a DNA fragment (148 bp) containing polyU and 3′X sequence was entirely synthesized and cloned into plasmid pBluescript SK II(+) (Stratagene). The cDNA encoding full length NS5B, which was prepared in i) above, was digested with restriction enzyme KpnI to give a cDNA fragment containing the nucleotide sequence of from the restriction enzyme cleavage site to the termination codon. This cDNA fragment was inserted into the upstream of 3′ untranslated region of the DNA in pBluescript SK II(+) and ligated. The about 450 bp inserted DNA sequence was used as a template in the preparation of substrate RNA.
RNA was synthesized (37° C., 3 hr) by run-off method using this purified DNA as a template, a promoter of pBluescript SK II(+), MEGAscript RNA synthesis kit (Ambion) and T7 RNA polymerase. DNase I was added and the mixture was incubated for 1 hr. The template DNA was removed by decomposition to give a crude RNA product.
A test substance (compound of the present invention) and a reaction mixture (30 μl) having the following composition were reacted at 25° C. for 90 min.
10% Trichloroacetic acid at 4° C. and 1% sodium pyrophosphate solution (150 μl) were added to this reaction mixture to stop the reaction. The reaction mixture was left standing in ice for 15 min to insolubilize RNA. This RNA was trapped on a glass filter (Whatman GF/C and the like) upon filtration by suction. This filter was washed with a solution containing 1% trichloroacetic acid and 0.1% sodium pyrophosphate, washed with 90% ethanol and dried. A liquid scintillation cocktail (Packard) was added and the radioactivity of RNA synthesized by the enzyme reaction was measured on a liquid scintillation counter.
The HCV polymerase inhibitory activity (IC50) of the compound of the present invention was calculated from the values of radioactivity of the enzyme reaction with and without the test substance.
Reaction mixture: HCV polymerase (0.5 μg/ml) obtained in i), substrate RNA (5 μg/ml) obtained in ii), ATP (50 μM), GTP (50 μM), CTP ([…]), UTP (2 μM), [5,6-^3H]UTP (46 Ci/mmol (Amersham), 1 μCi) 20 mM Tris-HCl (pH 7.5), EDTA (1 mM), MgCl2 (5 mM), NaCl (50 mM), DTT (1 mM), BSA (0.01%)

`O=C(O)c1ccc2c(C3CCCCC3)c3n(c2c1)CCNc1ccccc1-3` [Example 1-3, 13-cyclohexyl-6,7-dihydro-5H-benzo[5,6][1,4]diazepino[7,1-a]indole-10-carboxylic acid monohydrochloride] and `O=C1Cn2c(c(C3CCCCC3)c3ccc(C(=O)O)cc32)-c2ccccc2N1` [Example 1-24, 13-cyclohexyl-6-oxo-6,7-dihydro-5H-benzo[5,6][1,4]diazepino[7,1-a]indole-10-carboxylic acid] cannot be ordered by IC50: less than 100 nM for the first, less than 100 nM for the second.

`O=C(O)c1ccc2c(C3CCCCC3)c3n(c2c1)CCN(CC(=O)N1CCSCC1)c1ccccc1-3` [Example 1-7, 13-cyclohexyl-5-[2-oxo-2-(thiomorpholin-4-yl)ethyl]-6,7-dihydro-5H-benzo[5,6][1,4]diazepino[7,1-a]indole-10-carboxylic acid monohydrochloride] and `O=C(O)c1ccc2c(C3CCCCC3)c3n(c2c1)CCN(CC(=O)N1CCOCC1)c1ccccc1-3` [Example 1-26, 13-cyclohexyl-5-[2-(morpholin-4-yl)-2-oxoethyl]-6,7-dihydro-5H-benzo[5,6][1,4]diazepino[7,1-a]indole-10-carboxylic acid] cannot be ordered by IC50: less than 100 nM for the first, less than 100 nM for the second.

`O=C(O)c1ccc2c(C3CCCCC3)c3n(c2c1)CCN(CCN1CCSCC1)c1ccccc1-3` [Example 1-9, 13-cyclohexyl-5-[2-(thiomorpholin-4-yl)ethyl]-6,7-dihydro-5H-benzo[5,6][1,4]diazepino[7,1-a]indole-10-carboxylic acid dihydrochloride] and `O=C(O)c1ccc2c(C3CCCCC3)c3n(c2c1)CCN(CCN1CCOCC1)c1ccccc1-3` [Example 1-27, 13-cyclohexyl-5-[2-(morpholin-4-yl)ethyl]-6,7-dihydro-5H-benzo[5,6][1,4]diazepino[7,1-a]indole-10-carboxylic acid dihydrochloride] cannot be ordered by IC50: less than 100 nM for the first, less than 100 nM for the second.

`O=C(O)c1ccc2c(C3CCCCC3)c3n(c2c1)CCN(CCN1CCCCC1)c1cc(Cl)ccc1-3` [Example 1-14, 3-chloro-13-cyclohexyl-5-[2-(piperidin-1-yl)ethyl]-6,7-dihydro-5H-benzo[5,6][1,4]diazepino[7,1-a]indole-10-carboxylic acid dihydrochloride] and `O=C(O)c1ccc2c(C3CCCCC3)c3n(c2c1)CCN(CCN1CCCCC1)c1ccc(F)cc1-3` [Example 1-18, 13-cyclohexyl-2-fluoro-5-[2-(piperidin-1-yl)ethyl]-6,7-dihydro-5H-benzo[5,6][1,4]diazepino[7,1-a]indole-10-carboxylic acid dihydrochloride] cannot be ordered by IC50: less than 100 nM for the first, less than 100 nM for the second.

`CC(=O)N1CCn2c(c(C3CCCCC3)c3ccc(C(=O)O)cc32)-c2ccccc21` [Example 1-19, 5-acetyl-13-cyclohexyl-6,7-dihydro-5H-benzo[5,6][1,4]diazepino[7,1-a]indole-10-carboxylic acid] and `CN(C)C(=O)N1CCn2c(c(C3CCCCC3)c3ccc(C(=O)O)cc32)-c2ccccc21` [Example 1-31, 13-cyclohexyl-5-dimethylcarbamoyl-6,7-dihydro-5H-benzo[5,6][1,4]diazepino[7,1-a]indole-10-carboxylic acid] fall in the same range of IC50: 100 to 1000 nM for the first, 100 to 1000 nM for the second.

`CN1CCn2c(c(C3CCCCC3)c3ccc(C(=O)O)cc32)-c2ccccc21` [Example 1-20, 13-cyclohexyl-5-methyl-6,7-dihydro-5H-benzo[5,6][1,4]diazepino[7,1-a]indole-10-carboxylic acid] and `CC(C)N1CCn2c(c(C3CCCCC3)c3ccc(C(=O)O)cc32)-c2ccccc21` [Example 1-23, 13-cyclohexyl-5-isopropyl-6,7-dihydro-5H-benzo[5,6][1,4]diazepino[7,1-a]indole-10-carboxylic acid monohydrochloride] cannot be ordered by IC50: less than 100 nM for the first, less than 100 nM for the second.

`CN(C)C(=O)CN1CCn2c(c(C3CCCCC3)c3ccc(C(=O)O)cc32)-c2ccccc21` [Example 1-21, 13-cyclohexyl-5-dimethylcarbamoylmethyl-6,7-dihydro-5H-benzo[5,6][1,4]diazepino[7,1-a]indole-10-carboxylic acid] and `COCCN(C)C(=O)CN1CCn2c(c(C3CCCCC3)c3ccc(C(=O)O)cc32)-c2ccccc21` [Example 1-37, 13-cyclohexyl-5-{[N-(2-methoxyethyl)-N-methylcarbamoyl]methyl}-6,7-dihydro-5H-benzo[5,6][1,4]diazepino[7,1-a]indole-10-carboxylic acid monohydrochloride] cannot be ordered by IC50: less than 100 nM for the first, less than 100 nM for the second.

`O=C(O)c1ccc2c(C3CCCCC3)c3n(c2c1)CCN(Cc1ccccc1)c1ccccc1-3` [Example 1-22, 5-benzyl-13-cyclohexyl-6,7-dihydro-5H-benzo[5,6][1,4]diazepino[7,1-a]indole-10-carboxylic acid] and `O=C(CN1CCn2c(c(C3CCCCC3)c3ccc(C(=O)O)cc32)-c2ccccc21)NCc1ccccc1` [Example 1-25, 5-(benzylcarbamoylmethyl)-13-cyclohexyl-6,7-dihydro-5H-benzo[5,6][1,4]diazepino[7,1-a]indole-10-carboxylic acid] cannot be ordered by IC50: less than 100 nM for the first, less than 100 nM for the second.

`COc1ccc2c(c1)N(CC(=O)N(C)C)CCn1c-2c(C2CCCCC2)c2ccc(C(=O)O)cc21` [Example 1-28, 13-cyclohexyl-5-dimethylcarbamoylmethyl-3-methoxy-6,7-dihydro-5H-benzo[5,6][1,4]diazepino[7,1-a]indole-10-carboxylic acid] and `COC1CCN(C(=O)CN2CCn3c(c(C4CCCCC4)c4ccc(C(=O)O)cc43)-c3ccccc32)CC1` [Example 1-36, 13-cyclohexyl-5-[2-(4-methoxypiperidin-1-yl)-2-oxoethyl]-6,7-dihydro-5H-benzo[5,6][1,4]diazepino[7,1-a]indole-10-carboxylic acid monohydrochloride] cannot be ordered by IC50: less than 100 nM for the first, less than 100 nM for the second.

`O=C(O)c1ccc2c(C3CCCCC3)c3n(c2c1)CCN(CC(=O)N1CCCCC1)c1ccccc1-3` [Example 1-29, 13-cyclohexyl-5-[2-oxo-2-(piperidin-1-yl)ethyl]-6,7-dihydro-5H-benzo[5,6][1,4]diazepino[7,1-a]indole-10-carboxylic acid] and `O=C(O)c1ccc2c(C3CCCCC3)c3n(c2c1)CCN(CC(=O)N1CCC(O)CC1)c1ccccc1-3` [Example 1-35, 13-cyclohexyl-5-[2-(4-hydroxypiperidin-1-yl)-2-oxoethyl]-6,7-dihydro-5H-benzo[5,6][1,4]diazepino[7,1-a]indole-10-carboxylic acid monohydrochloride] cannot be ordered by IC50: less than 100 nM for the first, less than 100 nM for the second.

`CCN1CCN(C(=O)CN2CCn3c(c(C4CCCCC4)c4ccc(C(=O)O)cc43)-c3ccccc32)CC1` [Example 1-30, 13-cyclohexyl-5-[2-(4-ethylpiperazin-1-yl)-2-oxoethyl]-6,7-dihydro-5H-benzo[5,6][1,4]diazepino[7,1-a]indole-10-carboxylic acid dihydrochloride] and `O=C(O)c1ccc2c(C3CCCCC3)c3n(c2c1)CCN(CCN1CCCCC1)c1ccccc1-3` [Example 1-32, 13-cyclohexyl-5-[2-(piperidin-1-yl)ethyl]-6,7-dihydro-5H-benzo[5,6][1,4]diazepino[7,1-a]indole-10-carboxylic acid dihydrochloride] cannot be ordered by IC50: less than 100 nM for the first, less than 100 nM for the second.

`O=C(CN1CCn2c(c(C3CCCCC3)c3ccc(C(=O)O)cc32)-c2ccccc21)NCc1ccccn1` [Example 1-33, 13-cyclohexyl-5-{[(pyridin-2-ylmethyl)carbamoyl]methyl}-6,7-dihydro-5H-benzo[5,6][1,4]diazepino[7,1-a]indole-10-carboxylic acid dihydrochloride] and `O=C(O)c1ccc2c(C3CCCCC3)c3n(c2c1)CCN(CCNCc1ccccn1)c1ccccc1-3` [Example 1-34, 13-cyclohexyl-5-{2-[(pyridin-2-ylmethyl)amino]ethyl}-6,7-dihydro-5H-benzo[5,6][1,4]diazepino[7,1-a]indole-10-carboxylic acid trihydrochloride] cannot be ordered by IC50: less than 100 nM for the first, less than 100 nM for the second.
